Measured values: patent US20250360235A1, “RADI[…] AND METHOD FOR RADIOLABELLING” (Telix Innovations SA, priority 2024, published 2025)

Test: Radiochemical purity by HPLC over time after radiolabelling
Assay type: physicochemical
Experimental: Table 1 to Table 5 show the results of various radiolabelling experiments on radiochemical purity and the chelation yield. The radiolabelling experiments in the tables are carried out as described in: • Example 1 for when the gallium-68 source is GE Liquid target generator and EZAG GalliaPharm generator; • Example 2 for when the gallium-68 source is IRE Galli Eo generator; • Example 3 for when the gallium-68 source is GE solid target generator;
However, the experiments were carried out with the amount of ascorbic acid as indicated in the Tables 1 to 5, and the activity as indicated in the Tables 1 to 5. Radiochemical purities were measured at various times (T0, T1, T4, T6) after the radiolabelled experiments have been conducted.
The kits of Example 1, Example 2 or Example 3, with amounts of ascorbic acid as set out in Table 7 were used in the experiments for the ascorbic acid bracketing matrix. Three strengths of [^68Ga]Ga-PSMA-11 will be tested, i.e. 50 mCi/ml, 7 mCi/ml and 1 mCi/ml. Radiochemical purity was determined at different time points (TO, T1, T4 or T6), as set out in Table 7.

O=C([O-])CN(CCN(CC(=O)[O-])Cc1cc(CCC(=O)NCCCCCC(=O)NCCCC[C@H](NC(=O)N[C@@H](CCC(=O)O)C(=O)O)C(=O)O)ccc1[O-])Cc1cc(CCC(=O)O)ccc1[O-].[68Ga+3].[OH3+] [[^68Ga]PSMA-11, gallium-68 radiolabelled Glu-urea-Lys-HBED-CC (gozetotide or PSMA-11)]
Radiochemical Purity (HPLC) Ga-68 PSMA-11 (%) (25 mg ascorbic acid, 46.0-46.1 mCi, 4.38-4.39 mCi/mL, EZAG GalliaPharm, n=2, T0): C (C = all results conform to specifications) | Radiochemical Purity (HPLC) Ga-68 PSMA-11 (%) (25 mg ascorbic acid, 46.0-46.1 mCi, 4.38-4.39 mCi/mL, EZAG GalliaPharm, n=2, T4 (4 h)): C (C = all results conform to specifications) | Radiochemical Purity (HPLC) Ga-68 PSMA-11 (%) (bracketing ~1 mCi/mL, 18.75 mg ascorbic acid, 8.9-11.5 mCi, 0.85-1.09 mCi/mL, IRE Galli Eo, average of 2, T0): 100% | Radiochemical Purity (HPLC) Ga-68 PSMA-11 (%) (bracketing ~1 mCi/mL, 18.75 mg ascorbic acid, 8.9-11.5 mCi, 0.85-1.09 mCi/mL, IRE Galli Eo, average of 2, T1 (1 h)): 100% | Radiochemical Purity (HPLC) Ga-68 PSMA-11 (%) (bracketing ~1 mCi/mL, 25 mg ascorbic acid, 8.8-12.7 mCi, 0.84-1.21 mCi/mL, 2 × IRE Galli Eo, average of 2, T0): 99% | Radiochemical Purity (HPLC) Ga-68 PSMA-11 (%) (bracketing ~1 mCi/mL, 25 mg ascorbic acid, 8.8-12.7 mCi, 0.84-1.21 mCi/mL, 2 × IRE Galli Eo, average of 2, T1 (1 h)): 100% | Radiochemical Purity (HPLC) Ga-68 PSMA-11 (%) (bracketing ~1 mCi/mL, 31.25 mg ascorbic acid, 15.2-26.9 mCi, 1.44-2.54 mCi/mL, EZAG GalliaPharm, average of 2, T0): 100% | Radiochemical Purity (HPLC) Ga-68 PSMA-11 (%) (bracketing ~1 mCi/mL, 31.25 mg ascorbic acid, 15.2-26.9 mCi, 1.44-2.54 mCi/mL, EZAG GalliaPharm, average of 2, T1 (1 h)): 100% | Radiochemical Purity (HPLC) Ga-68 PSMA-11 (%) (bracketing ~7 mCi/mL, 18.75 mg ascorbic acid, 51.0-58.0 mCi, 5.55-6.5 mCi/mL, IRE Galli Eo, average of 2, T0): 100% | Radiochemical Purity (HPLC) Ga-68 PSMA-11 (%) (bracketing ~7 mCi/mL, 18.75 mg ascorbic acid, 51.0-58.0 mCi, 5.55-6.5 mCi/mL, IRE Galli Eo, average of 2, T4 (4 h)): 100% | Radiochemical Purity (HPLC) Ga-68 PSMA-11 (%) (bracketing ~7 mCi/mL, 25 mg ascorbic acid, 51.6-74.4 mCi, 4.56-6.92 mCi/mL, 3 × GE Liquid Target, 3 × IRE Galli Eo, 3 × EZAG GalliaPharm, average of 9, T0): 100% | Radiochemical Purity (HPLC) Ga-68 PSMA-11 (%) (bracketing ~7 mCi/mL, 25 mg ascorbic acid, 51.6-74.4 mCi, 4.56-6.92 mCi/mL, 3 × GE Liquid Target, 3 × IRE Galli Eo, 3 × EZAG GalliaPharm, average of 9, T4 (4 h)): 100% | Radiochemical Purity (HPLC) Ga-68 PSMA-11 (%) (bracketing ~7 mCi/mL, 31.25 mg ascorbic acid, 61.5-62.0 mCi, 5.85-5.88 mCi/mL, EZAG GalliaPharm, average of 2, T0): 100% | Radiochemical Purity (HPLC) Ga-68 PSMA-11 (%) (bracketing ~7 mCi/mL, 31.25 mg ascorbic acid, 61.5-62.0 mCi, 5.85-5.88 mCi/mL, EZAG GalliaPharm, average of 2, T4 (4 h)): 100% | Radiochemical Purity (HPLC) Ga-68 PSMA-11 (%) (bracketing ~50 mCi/mL, 20 mg ascorbic acid, 514-544 mCi, 48.3-51.9 mCi/mL, GE Solid Target, average of 2, T0): 100% | Radiochemical Purity (HPLC) Ga-68 PSMA-11 (%) (bracketing ~50 mCi/mL, 20 mg ascorbic acid, 514-544 mCi, 48.3-51.9 mCi/mL, GE Solid Target, average of 2, T6 (6 h)): 100% | Radiochemical Purity (HPLC) Ga-68 PSMA-11 (%) (bracketing ~50 mCi/mL, 25 mg ascorbic acid, 537-551 mCi, 50.2-51.6 mCi/mL, GE Solid Target, average of 3, T0): 100% | Radiochemical Purity (HPLC) Ga-68 PSMA-11 (%) (bracketing ~50 mCi/mL, 25 mg ascorbic acid, 537-551 mCi, 50.2-51.6 mCi/mL, GE Solid Target, average of 3, T6 (6 h)): 100% | Radiochemical Purity (HPLC) Ga-68 PSMA-11 (%) (bracketing ~50 mCi/mL, 31.25 mg ascorbic acid, 500-544 mCi, 48.1-51.7 mCi/mL, GE Solid Target, average of 2, T0): 100% | Radiochemical Purity (HPLC) Ga-68 PSMA-11 (%) (bracketing ~50 mCi/mL, 31.25 mg ascorbic acid, 500-544 mCi, 48.1-51.7 mCi/mL, GE Solid Target, average of 2, T6 (6 h)): 100% | Radiochemical Purity (HPLC) Ga-68 PSMA-11 (%) (validation batches, 25 mg ascorbic acid, 51.6-62.7 mCi, 4.56-5.88 mCi/mL, IRE Galli Eo, average of 3, T0): 100% | Radiochemical Purity (HPLC) Ga-68 PSMA-11 (%) (validation batches, 25 mg ascorbic acid, 51.6-62.7 mCi, 4.56-5.88 mCi/mL, IRE Galli Eo, average of 3, T4 (4 h)): 100% | Radiochemical Purity (HPLC) Ga-68 PSMA-11 (%) (validation batches, 25 mg ascorbic acid, 51.6-62.7 mCi, 4.56-5.88 mCi/mL, IRE Galli Eo, n=3, T0): C (C = all results conform to specifications) | Radiochemical Purity (HPLC) Ga-68 PSMA-11 (%) (validation batches, 25 mg ascorbic acid, 51.6-62.7 mCi, 4.56-5.88 mCi/mL, IRE Galli Eo, n=3, T4 (4 h)): C (C = all results conform to specifications) | Radiochemical Purity (HPLC) Ga-68 PSMA-11 (%) (validation batches, 25 mg ascorbic acid, 53.3-74.4 mCi, 5.03-6.92 mCi/mL, GE Liquid target, average of 3, T0): 99% | Radiochemical Purity (HPLC) Ga-68 PSMA-11 (%) (validation batches, 25 mg ascorbic acid, 53.3-74.4 mCi, 5.03-6.92 mCi/mL, GE Liquid target, average of 3, T4 (4 h)): 100% | Radiochemical Purity (HPLC) Ga-68 PSMA-11 (%) (validation batches, 25 mg ascorbic acid, 53.3-74.4 mCi, 5.03-6.92 mCi/mL, GE Liquid target, n=3, T0): C (C = all results conform to specifications) | Radiochemical Purity (HPLC) Ga-68 PSMA-11 (%) (validation batches, 25 mg ascorbic acid, 53.3-74.4 mCi, 5.03-6.92 mCi/mL, GE Liquid target, n=3, T4 (4 h)): C (C = all results conform to specifications) | Radiochemical Purity (HPLC) Ga-68 PSMA-11 (%) (validation batches, 25 mg ascorbic acid, 65.0-66.4 mCi, 5.74-6.15 mCi/mL, EZAG GalliaPharm, average of 3, T0): 100%
